The values that follow are results of earlier work, collected in publication PMC8713164, “Development of a 1,2,4-Triazole-Based Lead Tankyrase Inhibitor: Part II” (Journal of Medicinal Chemistry, 2021).

One series deals with WNT/β-catenin signaling. As to conditions: cited from earlier work.
The test system of the next series is COLO 320DM cells. As to conditions: cited from earlier work.
Details of series [1]: method as in PMID 32511917. The note with it: PBS pH = 7; cited from earlier work.
The next series concerns Caco-2. As to conditions: cited from earlier work.
Details of series [2]: method as in PMID 32511917. As to conditions: cited from earlier work.
Details of series [3]: method as in PMID 32511917. As to conditions: mouse; cited from earlier work.
Details of series [4]: method as in PMID 32511917. As to conditions: cited from earlier work. This is another data set of the same source.
Series [5] deals with Cerep Safety panel 44 targets. Details: method as in PMID 32511917. The note with it: 10 μM; cited from earlier work.
The next series relates to A2A. The note with it: 10 μM; cited from earlier work.
The conditions of series [6]: mouse PO 5 mg/kg; cited from earlier work.

A word on the IC50: it is the midpoint of a concentration-inhibition curve. Broadly, the GI50 is the concentration at which growth is held to half of that of the control. As to `CCOc1ccc(-c2nnc([C@H]3C[C@H](NC(=O)c4ccccn4)C3)n2-c2ccccc2F)nc1` [Compound 1], the concentration for half-maximal inhibition (IC50) in the series with WNT/β-catenin signaling (HEK293 WNT/β-catenin signaling reporter assay) is 0.019 µM. In addition, the “HEK293 reporter assay pIC50 ± SEM” value with WNT/β-catenin signaling was 19 (7.75 ± 0.067). For the same compound, in the series on COLO 320DM cells, the “COLO 320DM cells GI25” value was 0.094 µM and the concentration for 50% growth inhibition (GI50) is 0.65 µM. Moreover, the kinetic solubility in series [1] was more than 80 µM. The “Caco-2 A–B: Papp” value with Caco-2 is given as 39.5 10^–6 cm/s. For the same compound, the “microsomal stability human CLint” value in series [2] was less than 5 μL/min/mg protein. Further, the “microsomal stability mouse CLint” value in series [3] is listed as 27 μL/min/mg protein. Also, in [4], the Ames test result is given as “nongenotoxic”. The “Cerep Safety panel 44 targets (overall result)” value in series [5] is reported as “clean”. The “Cerep Safety panel inhibition of A2A” value in the series on A2A is listed as 53%. In [6], the CL was 2.09 L/h/kg.
